Test results from the supplement of paper PMC10307832.

Key:
Experiment in all cases: relative viability (nuclei count vs DMSO), 5 days (fraction); higher = more cells survive
NCI-H322M = tested on: NCI-H322M
Method in brief: (§1)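 Lung cancer cell lines were seeded in 1536-well plates and dosed by pin tool the next day, with either a single drug or a fixed anchor-drug dose combined with five library-drug doses (not always all listed) spaced in √10 steps. Five days later, one step fixed the cells and stained their nuclei (final 0.05% Triton X-100, 1% formaldehyde, 1 ug/ml Hoechst), and nuclei were counted on 4× images. Relative viability is the nuclei count in treated wells divided by the count in vehicle wells, and each value is the median of duplicate plates.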

UMC-11 = tested on: UMC-11
Method in brief: as §1

NCI-H1563 = tested on: NCI-H1563
Method in brief: as §1

ABC-1 = tested on: ABC-1
Method in brief: as §1

NCI-H1395 = tested on: NCI-H1395
Method in brief: as §1

NCI-H1792 = tested on: NCI-H1792
Method in brief: as §1

NCI-H2087 = tested on: NCI-H2087
Method in brief: as §1

LCLC-103H = tested on: LCLC-103H
Method in brief: as §1

LK-2 = tested on: LK-2
Method in brief: as §1

A-427 = tested on: A-427
Method in brief: as §1

NCI-H1666 = tested on: NCI-H1666
Method in brief: as §1

PC-14 = tested on: PC-14
Method in brief: as §1

NCI-H23 = tested on: NCI-H23
Method in brief: as §1

NCI-H1651 = tested on: NCI-H1651
Method in brief: as §1

H3255 = tested on: H3255
Method in brief: as §1

CAL-12T = tested on: CAL-12T
Method in brief: as §1

NCI-H838 = tested on: NCI-H838
Method in brief: as §1

NCI-H661 = tested on: NCI-H661
Method in brief: as §1

NCI-H2228 = tested on: NCI-H2228
Method in brief: as §1

NCI-H2085 = tested on: NCI-H2085
Method in brief: as §1

NCI-H358 = tested on: NCI-H358
Method in brief: as §1

NCI-H1355 = tested on: NCI-H1355
Method in brief: as §1

COCC1(CO)C(=O)C2CCN1CC2 (configuration not stated) [PRIMA-1MET] + N=C(N)NC(=N)NCCc1ccccc1 [Phenformin] (partner 250 µM)
relative viability (NCI-H322M; first compound 0.2 µM): 0.869
relative viability (NCI-H322M; first compound 0.6325 µM): 0.549
relative viability (NCI-H322M; first compound 6.325 µM): 0.804
relative viability (NCI-H322M; first compound 20 µM): 0.0578
relative viability (UMC-11; first compound 0.2 µM): 0.348
relative viability (UMC-11; first compound 0.6325 µM): 0.31
relative viability (UMC-11; first compound 2 µM): 0.264
relative viability (UMC-11; first compound 6.325 µM): 0.343
relative viability (UMC-11; first compound 20 µM): 0.254
relative viability (NCI-H1563; first compound 0.2 µM): 0.686
relative viability (NCI-H1563; first compound 0.6325 µM): 0.673
relative viability (NCI-H1563; first compound 2 µM): 0.668
relative viability (NCI-H1563; first compound 6.325 µM): 0.719
relative viability (NCI-H1563; first compound 20 µM): 0.302
relative viability (ABC-1; first compound 0.2 µM): 0.233
relative viability (ABC-1; first compound 0.6325 µM): 0.2
relative viability (ABC-1; first compound 2 µM): 0.23
relative viability (ABC-1; first compound 6.325 µM): 0.231
relative viability (ABC-1; first compound 20 µM): 0.199
relative viability (NCI-H1395; first compound 0.2 µM): 0.469
relative viability (NCI-H1395; first compound 0.6325 µM): 0.414
relative viability (NCI-H1395; first compound 2 µM): 0.416
relative viability (NCI-H1395; first compound 6.325 µM): 0.441
relative viability (NCI-H1395; first compound 20 µM): 0.395
relative viability (NCI-H1792; first compound 0.2 µM): 0.352
relative viability (NCI-H1792; first compound 0.6325 µM): 0.272
relative viability (NCI-H1792; first compound 6.325 µM): 0.238
relative viability (NCI-H1792; first compound 20 µM): 0.319
relative viability (NCI-H2087; first compound 0.2 µM): 0.315
relative viability (NCI-H2087; first compound 0.6325 µM): 0.332
relative viability (NCI-H2087; first compound 2 µM): 0.494
relative viability (NCI-H2087; first compound 6.325 µM): 0.463
relative viability (NCI-H2087; first compound 20 µM): 0.168
relative viability (LCLC-103H; first compound 0.2 µM): 0.354
relative viability (LCLC-103H; first compound 0.6325 µM): 0.283
relative viability (LCLC-103H; first compound 2 µM): 0.315
relative viability (LCLC-103H; first compound 6.325 µM): 0.355
relative viability (LCLC-103H; first compound 20 µM): 0.362
relative viability (LK-2; first compound 0.2 µM): 0.45
relative viability (LK-2; first compound 0.6325 µM): 0.41
relative viability (LK-2; first compound 2 µM): 0.228
relative viability (LK-2; first compound 6.325 µM): 0.14
relative viability (LK-2; first compound 20 µM): 0.124
relative viability (A-427; first compound 0.2 µM): 0.221
relative viability (A-427; first compound 0.6325 µM): 0.294
relative viability (A-427; first compound 2 µM): 0.304
relative viability (A-427; first compound 6.325 µM): 0.281
relative viability (A-427; first compound 20 µM): 0.133
relative viability (NCI-H1666; first compound 0.2 µM): 0.558
relative viability (NCI-H1666; first compound 0.6325 µM): 0.548
relative viability (NCI-H1666; first compound 2 µM): 0.555
relative viability (NCI-H1666; first compound 6.325 µM): 0.634
relative viability (NCI-H1666; first compound 20 µM): 0.564
relative viability (PC-14; first compound 0.2 µM): 0.621
relative viability (PC-14; first compound 0.6325 µM): 0.503
relative viability (PC-14; first compound 2 µM): 0.735
relative viability (PC-14; first compound 6.325 µM): 0.379
relative viability (PC-14; first compound 20 µM): 0.0559
relative viability (NCI-H23; first compound 0.2 µM): 0.854
relative viability (NCI-H23; first compound 0.6325 µM): 0.772
relative viability (NCI-H23; first compound 2 µM): 0.822
relative viability (NCI-H23; first compound 6.325 µM): 0.842
relative viability (NCI-H23; first compound 20 µM): 0.561
relative viability (NCI-H1651; first compound 0.2 µM): 0.297
relative viability (NCI-H1651; first compound 0.6325 µM): 0.244
relative viability (NCI-H1651; first compound 2 µM): 0.293
relative viability (NCI-H1651; first compound 6.325 µM): 0.377
relative viability (NCI-H1651; first compound 20 µM): 0.339
relative viability (H3255; first compound 0.2 µM): 0.458
relative viability (H3255; first compound 0.6325 µM): 0.335
relative viability (H3255; first compound 2 µM): 0.36
relative viability (H3255; first compound 6.325 µM): 0.374
relative viability (H3255; first compound 20 µM): 0.293
relative viability (CAL-12T; first compound 0.2 µM): 0.52
relative viability (CAL-12T; first compound 0.6325 µM): 0.592
relative viability (CAL-12T; first compound 2 µM): 0.586
relative viability (CAL-12T; first compound 6.325 µM): 0.519
relative viability (CAL-12T; first compound 20 µM): 0.0696
relative viability (NCI-H838; first compound 0.2 µM): 0.574
relative viability (NCI-H838; first compound 0.6325 µM): 0.535
relative viability (NCI-H838; first compound 2 µM): 0.451
relative viability (NCI-H838; first compound 6.325 µM): 0.712
relative viability (NCI-H838; first compound 20 µM): 0.0931
relative viability (NCI-H661; first compound 0.2 µM): 0.304
relative viability (NCI-H661; first compound 0.6325 µM): 0.261
relative viability (NCI-H661; first compound 2 µM): 0.274
relative viability (NCI-H661; first compound 6.325 µM): 0.288
relative viability (NCI-H661; first compound 20 µM): 0.292
relative viability (NCI-H2228; first compound 0.2 µM): 0.41
relative viability (NCI-H2228; first compound 0.6325 µM): 0.278
relative viability (NCI-H2228; first compound 2 µM): 0.336
relative viability (NCI-H2228; first compound 6.325 µM): 0.213
relative viability (NCI-H2228; first compound 20 µM): 0.0266
relative viability (NCI-H2085; first compound 0.2 µM): 0.727
relative viability (NCI-H2085; first compound 0.6325 µM): 0.62
relative viability (NCI-H2085; first compound 2 µM): 0.432
relative viability (NCI-H2085; first compound 6.325 µM): 0.449
relative viability (NCI-H2085; first compound 20 µM): 0.272
relative viability (NCI-H358; first compound 0.2 µM): 0.341
relative viability (NCI-H358; first compound 2 µM): 0.253
relative viability (NCI-H358; first compound 6.325 µM): 0.279
relative viability (NCI-H358; first compound 20 µM): 0.0042
relative viability (NCI-H1355; first compound 0.2 µM): 0.443
relative viability (NCI-H1355; first compound 0.6325 µM): 0.409
relative viability (NCI-H1355; first compound 2 µM): 0.384
relative viability (NCI-H1355; first compound 6.325 µM): 0.46
relative viability (NCI-H1355; first compound 20 µM): 0.421
